Laboratory results from US6174877A, “Carbapenem compound, their production and use” (Takeda Chemical Industries, Ltd., priority 1996, dated 2001).
≈ marks a conversion by molar mass, not a printed value. Like-named read-outs stand apart in the source and are kept apart here.

Legend:
H. influenzae NN400 = assay: Minimum inhibitory concentration (MIC) by agar dilution method; assay type: cell-based; details: Haemophilus influenzae
Description: (§1) Minimum Inhibitory Concentration (MIC)
(§2) The minimum inhibitory concentration [MIC (unit: (μg/ml)] of the test compound was determined by an agar dilution method. More specifically, 0.25 ml of an aqueous solution of the test compound diluted stepwise was put into a Petri dish, which was then mixed with 9.75 ml of Muller-Hinton agar containing fildis enrichment [F-MH medium. fildis enrichment (5%)]). On thus-prepared mixed agar plate, a suspension of the test bacteria (about 10^6 CFU/ml) was spread, which was incubated at 37° C. overnight.

E. coli NHIJ JC-2 = assay: as above; assay type: cell-based; details: Escherichia coli
Description: as §1, §2

[1] = strain H. influenzae NN400, medium F-MH, 10^6 CFU/ml, 37° C. overnight, read-out: MIC (μg/ml) 10^6 CFU/ml H. influenzae NN400
[2] = NHIJJC2, strain E. coli NHIJ JC-2, medium F-MH, 10^6 CFU/ml, 37° C. overnight, read-out: MIC (μg/ml) 10^6 CFU/ml E. coli NHIJ JC-2
[3] = NN400, read-out: MIC (μg/ml) 10^6 CFU/ml H. influenzae NN400
[4] = NHIJJC2, read-out: MIC (μg/ml) 10^6 CFU/ml E. coli NHIJ JC-2

MIC (H. influenzae NN400; [1]) [µg/mL]	MIC (E. coli NHIJ JC-2; [2]) [µg/mL]	Structure (SMILES)	MIC (H. influenzae NN400; [3]) [µg/mL]	MIC (E. coli NHIJ JC-2; [4]) [µg/mL]
0.1 (≈ 0.275 µM)	0.1 (≈ 0.275 µM)	CC(Cc1cccnn1)SC1=C(C(=O)O)N2C(=O)[C@H]([C@@H](C)O)[C@H]2[C@H]1C (single isomer, unassigned; diastereomer-2) [Working Example 17]	–	–
0.78 (≈ 2.61 µM)	0.1 (≈ 0.334 µM)	C[C@@H](O)[C@H]1C(=O)N2C(C(=O)O)=C(SCCN=CN)C[C@H]12 [Imipenem, reference compound]	–	–
0.1	0.025	C[C@@H](O)[C@H]1C(=O)N2C(C(=O)O)=C(SCCc3c[nH]nn3)[C@H](C)[C@H]12 [Working Example 2-3, Sodium (4R,5S,6S)-6-[(1R)-1-hydroxyethyl]-4-methyl-7-oxo-3-[2-(1,2,3-triazol-4-yl)ethylthio]-1-azabicyclo[3.2.0]hept-2-ene-carboxylate]	–	–
0.05	0.2	C[C@@H](O)[C@H]1C(=O)N2C(C(=O)O)=C(SCCc3cn4cc(N)ccc4n3)[C@H](C)[C@H]12 [Working Example 29-2, Sodium (4R,5S,6S)-3-[2-(6-aminoimidazo[1,2-a]pyridin-2-yl)ethylthio]-6-[(1R)-1-hydroxyethyl]-4-methyl-7-oxo-1-azabicyclo[3.2.0]hept-2-ene-carboxylate]	–	–

The next lines start with the molecule.

Structure (SMILES)	MIC (H. influenzae NN400; [1]) [µg/mL]	MIC (E. coli NHIJ JC-2; [2]) [µg/mL]	MIC (H. influenzae NN400; [3]) [µg/mL]	MIC (E. coli NHIJ JC-2; [4]) [µg/mL]
C[C@@H](O)[C@H]1C(=O)N2C(C(=O)[O-])=C(SCCc3cc[nH]n3)[C@H](C)[C@H]12.[Na+] [Working Example 3-3, Sodium (4R,5S,6S)-6-[(1R)-1-hydroxyethyl]-4-methyl-7-oxo-3-[2-(3-pyrazolyl)ethylthio]-1-azabicyclo[3.2.0]hept-2-ene-2-carboxylate]	–	–	0.1	0.1
C[C@@H](O)[C@H]1C(=O)N2C(C(=O)[O-])=C(SCCc3cn4ccccc4n3)[C@H](C)[C@H]12.[Na+] [Working Example 18-2, Sodium (4R,5S,6S)-6-[(R)-1-hydroxyethyl]-3-[2-(imidazo[1,2-a]pyridin-2-yl)ethylthio]-4-methyl-7-oxo-1-azabicyclo[3.2.0]hept-2-ene-2-carboxylate]	–	–	0.1	0.2
C[C@@H](O)[C@H]1C(=O)N2C(C(=O)[O-])=C(SCCc3cn4cccnc4n3)[C@H](C)[C@H]12.[Na+] [Working Example 32-2, Sodium (4R,5S,6S)-6-[(1R)-1-hydroxyethyl]-3-[2-(imidazo[1,2-a]pyrimidin-2-yl)ethylthio]-4-methyl-7-oxo-1-azabicyclo[3.2.0]hept-2-ene-2-carboxylate]	–	–	0.05	0.2
C[C@@H](O)[C@H]1C(=O)N2C(C(=O)[O-])=C(SCCc3cn4c(NC(N)=O)cccc4n3)[C@H](C)[C@H]12.[Na+] [Working Example 33-2, Sodium (4R,5S,6S)-6-[(1R)-1-hydroxyethyl]-4-methyl-7-oxo-3-[2-(5-ureidoimidazo[1,2-a]pyridin-2-yl)ethylthio]-1-azabicyclo[3.2.0]hept-2-ene-2-carboxylate]	–	–	0.1	0.2
